# Reference: patent publication US4906794A, “Lysosome liberation inhibitors and histamine release inhibitors” (Mitsubishi Kasei Corporation, priority 1986, dated 1990)
# Legend:
# [1] = tested on: carrageenin-induced rat paw edema; assay: rat carrageenin edema test (carrageenin-induced rat paw edema); type: in vivo, Wistar male rat; details: 6 rats; for % Inhibition (edema), 2 Hours: 2 hours after carrageenin; for % Inhibition (edema), 3 Hours: 3 hours after carrageenin
# Procedure: When […] of 1% (W/V) λ-carrageenin is subcutaneously injected into the left paw of a Wistar male rat of 120 to 150 g, edema is developed in the left paw with a severity peak at 3 to 4 hours after injection--rat carrageenin edema test. It has been known that this carrageenin-induced rat paw edema is an excellent experimental model for inflammation, where histamine is involved in the development of edema immediately after injection of carrageenin, and subsequently such chemical mediators as prostaglandins, leukotrienes, bradykinin and the like are also involved.
# The effect of sarcophytol-A on edema was investigated employing this experimental model: sarcophytol-A was orally administered to rats one hour before injection of carrageenin and the volume of the thus induced edema in the rat paw was measured by a volumometer 2 or 3 hours after the injection of carrageenin.
# Degrees of edematization are expressed in percentages of paw volume increases after induction with respect to the paw volumes before induction: namely,
# % Edematization=(B-A)/A×100
# wherein A is the paw volume before induction, and B after induction. Further, inhibiting rates (%) are calculated according to the following equation: […]
# [2] = tested on: polymorphonuclear leukocytes; assay: liberation of lysosomal enzymes (β-glucuronidase) from FMLP-stimulated polymorphonuclear leukocytes; type: cell-based, male Wistar rat; details: for Liberation (%) of lysosomal enzymes: control (0.1% DMSO) 32.0
# Procedure: When 20 ml of 1% casein is intraperitoneally injected to a rat, a large number of polymorphonuclear leukocytes appear in the peritoneal cavity in 5 hours after the injection. Using these polymorphonuclear leukocytes, it is possible to measure the activity of polymorphonuclear leukocytes in an in vitro system. Thus, polymorphonuclear leukocytes are added into a test tube together with a buffer, and cytochalasin B is then added. Five minutes later, a stimulant formyl-methionyl-leucyl-phenylalanine (FMLP) is added. Then, the polymorphonuclear leukocytes liberate lysosomal enzymes. Simultaneously, some active enzymes and leukotrienes are produced. See Wei Hsueh et al., Nature, 290(23), 710-713 (11981).
# Thus, polymorphonuclear leukocytes (2×10^6) were collected from the peritoneal cavity of a male Wistar rat of 250 to 350 g in body weight which had been stimulated with casein, and incubated in Hepes buffer (pH 7.4) for 5 minutes. After 5 μg of cytochalasin B was added, the mixture was incubated for an additional one minute. To the mixture, there was added an amount of a drug to be tested and, after incubation for 5 minutes, FMLP (0.1 μM) as a stimulant was added. Five minutes later, 2 volumes of ice-cooled phosphate buffer was added to arrest the reaction. The cells were removed by centrifugation at 1,100 rpm for 5 minutes. The supernatant was assayed for β-glucuronidase activity as an index of lysosomal enzymes. Separately, the total β-glucuronidase activity contained in the polymorphonuclear leukocyte was measured. Thus, liberation rates of lysosomal enzymes were determined as percentages of […]. Inhibition rates were calculated in percentage according to the following equation:
# % Inhibition=(1-T/C) ×100
# wherein T and C represent the liberation rates (%) of lysosomes for the treated and control groups, respectively.
# [3] = tested on: mast cells; assay: release of histamine from mast cells stimulated with protein extracted from the cuticle of ascarids (IgE antigen); type: cell-based, rat; details: preincubated before addition of protein extracted from the cuticle of ascarids
# [4] = tested on: mast cells; assay: release of histamine from mast cells stimulated with compound 48/80; type: cell-based, male Wistar rat; details: for Histamine Release: control (0.1% DMSO) 62.42
# Procedure: Such histamine release can also be caused by addition of a synthetic stimulant compound 48/80, ATP (adenosine triphosphate), to mast cells.
# Thus, mast cells were collected from the peritoneal cavity of a male Wistar rat of 400 to 450 g in body weight according to conventional procedures. The mast cells (5×10^4) were incubated in Krebs-Ringer buffer (pH 7.4) containing an amount of sarcophytol-A for 10 minutes. The compound 48/80 (100 ng) was added as a stimulant. After incubation for further 10 minutes, cells were removed by centrifugation. Histamine in the supernatant was quantitatively measured according to Shore et al. method: J. Phar. Exp. Ther., 127, 182-186 (1959). Total histamine contained in the mast cells was also measured. Inhibition rates (%) are calculated according to the following equation: […]
# wherein T and C represent the amount of histamine released from mast cells after the treatment with the drug, and the total amount contained in the mast cells, respectively.
# [5] = tested on: mast cells; details: inhibitor of histamine release; cited from earlier work
# [6] = 33 mg/kg oral, 1 h before carrageenin
smiles,measurement,setting,value
"COc1ccc2c(c1)c(CC(=O)O)c(C)n2C(=O)c1ccc(Cl)cc1 [Indomethacin, reference compound]","% Inhibition (edema), 2 Hours","[1]; 10 mg/kg oral, **p<0.01 vs control",43.5 ± 3.5%
same,"% Inhibition (edema), 3 Hours","[1]; 10 mg/kg oral, ***p<0.001 vs control",43.7 ± 3.0%
C/C1=C\C=C(\C(C)C)[C@@H](O)C/C(C)=C/CC/C(C)=C/CC1 [Sarcophytol-A],"% Inhibition (edema), 2 Hours",[1]; [6],-3.0 ± 6.5%
same,"% Inhibition (edema), 3 Hours",[1]; [6],2.4 ± 8.6%
same,"% Inhibition (edema), 2 Hours","[1]; 100 mg/kg oral, 1 h before carrageenin",24.4 ± 7.8%
same,"% Inhibition (edema), 3 Hours","[1]; 100 mg/kg oral, 1 h before carrageenin, **p<0.01 vs control",26.9 ± 6.9%
same,Liberation (%) of lysosomal enzymes,"[2]; 4 μM, FMLP 0.1 μM",29.4%
same,Liberation (%) of lysosomal enzymes,"[2]; 11 μM, FMLP 0.1 μM",27.2%
same,Liberation (%) of lysosomal enzymes,"[2]; 33 μM, FMLP 0.1 μM",26.0%
same,Liberation (%) of lysosomal enzymes,"[2]; 100 μM, FMLP 0.1 μM",13.1%
same,inhibition at 4 µM,"[2]; Rattus norvegicus, Leukocyte, 4 μM, FMLP 0.1 μM, read-out: Inhibition (%) of lysosome liberation",8.1%
same,inhibition at 11 µM,"[2]; Rattus norvegicus, Leukocyte, 11 μM, FMLP 0.1 μM, read-out: Inhibition (%) of lysosome liberation",15.1%
same,inhibition at 33 µM,"[2]; Rattus norvegicus, Leukocyte, 33 μM, FMLP 0.1 μM, read-out: Inhibition (%) of lysosome liberation",18.8%
same,inhibition at 100 µM,"[2]; Rattus norvegicus, Leukocyte, 100 μM, FMLP 0.1 μM, read-out: Inhibition (%) of lysosome liberation",59%
same,liberation of lysosomal enzymes (in words),[2]; preincubated before addition of the stimulant FMLP,positively inhibited
same,release of histamine (in words),[3],positively inhibited
same,Histamine Release,"[4]; 4 μM, compound 48/80 100 ng",65.32 Fluorescence Intensity
same,Histamine Release,"[4]; 11 μM, compound 48/80 100 ng",59.72 Fluorescence Intensity
same,Histamine Release,"[4]; 33 μM, compound 48/80 100 ng",55.72 Fluorescence Intensity
same,Histamine Release,"[4]; 100 μM, compound 48/80 100 ng",41.45 Fluorescence Intensity
same,inhibition at 4 µM,"[4]; Rattus norvegicus, Mast cell, 4 μM, compound 48/80 100 ng",-4.6%
same,inhibition at 11 µM,"[4]; Rattus norvegicus, Mast cell, 11 μM, compound 48/80 100 ng",4.3%
same,inhibition at 33 µM,"[4]; Rattus norvegicus, Mast cell, 33 μM, compound 48/80 100 ng",10.7%
same,inhibition at 100 µM,"[4]; Rattus norvegicus, Mast cell, 100 μM, compound 48/80 100 ng",33.6%
same,release of histamine (in words),[4]; preincubated before addition of stimulant compound 48/80,positively inhibited
O=C(O)c1cc(=O)c2c(OCC(O)COc3cccc4oc(C(=O)O)cc(=O)c34)cccc2o1 [cromoglycate],degranulation of mast cells (in words),[5],inhibits degranulation of mast cells
